Earlier results, collected in US5900412A, “Percutaneous/transdermal delivery of ASA and antithrombotic therapies based thereon” (Luitpold Pharma GmbH, priority 1996, dated 1999).

Legend:
[1] = system: cyclooxygenase

SMILES: CC(=O)Oc1ccccc1C(=O)O [ASA, acetylsalicylic acid]
- absolute bio-availability of ASA (following peroral administration): 50%-70
- metabolism of ASA to SA (in words) (gastrointestinal fluids, absorption in stomach and intestine, blood plasma): rapidly metabolized to its principal metabolite SA
- acetylation and inactivation of cyclooxygenase (in words) [1]: irreversible acetylation, and consequently prolonged inactivation, of cyclooxygenase
- duration of inhibition of thromboxane synthesis (life of the thrombocytes) ([1]; blood platelets): 1 month
